# According to patent US20140248383A1, “SLEEP QUALITY IMPROVING AGENT” (LION CORPORATION, priority 2011, published 2014):
# System: male C57BL/6 mice
# Assay: Measurement of amount of activity of mice (sleep inducing effect)
# Format: in vivo
# Experimental: When a sample has the function of inducing sleep, the amount of activity always decreases after administration of the sample. Therefore, the sleep inducing effect of each sample was evaluated by determining whether or not the administration of the sample solution to a mouse caused a reduction in the amount of activity.
# 8-Week old or 9-week old male C57BL/6 mice were purchased from Japan SLC, Inc. and acclimatized for 3 to 6 days. The amount of activity during acclimatization was used to divide the mice into administration groups. Immediately before the onset of the dark period, Fraxinus excelsior L. extract was orally administered in an amount of 3 g/kg per body weight of a mouse (Example 1-1), or a 0.5% by mass aqueous methyl cellulose solution was orally administered in an amount of 10 mL/kg per body weight of a mouse (Comparative Example 1-1), and the amount of activity was measured for 24 hours after administration. Each administration group included 8 mice (n=8).
# The amount of activity was measured under the following conditions. The mice were raised in individual cages, and an infrared camera was disposed above each cage. The imaging range of the infrared camera was divided into 64 sections, and the number of occurrences that the mouse crossed a section was measured. The number of occurrences was collected every 30 minutes. […]
smiles,measurement,setting,value
"O=C1c2c(O)cc(O)cc2O[C@H](c2ccc(O)c(O)c2)[C@H]1O [DIHYDROQUERCETIN, dihydroquercetin]",cumulative amount of activity 6 hours after administration,"dihydroquercetin 2.7 g/kg oral immediately before dark period, n=4",4700 number of occurrences/6 hours
same,cumulative amount of activity 6 hours after administration compared to control solution,"dihydroquercetin 2.7 g/kg oral, n=4, significant difference at p<0.01",significantly lower
